Reference: patent US11261200B2, “Heteroaryltrifluoroborate compounds for the treatment of mycobacterial infections” (The Global Alliance for TB Drug Development, Inc., priority 2016, dated 2022)
≈ marks a conversion by molar mass, not a printed value. Read-outs that look alike come from different tables or passages of the source.

Tests used:
M tb H37Rv [1] = test: microbe, parasite or virus in culture; assay type: cell-based, Mycobacterium tuberculosis; settings: pH 6.7
M tb H37Rv [2] = test: microbe, parasite or virus in culture; assay type: cell-based, Mycobacterium tuberculosis; settings: pH 5.2
[3] = test system: MtbH37Rv pncA-knock out strain; test: microbe, parasite or virus in culture; assay type: cell-based, Mycobacterium tuberculosis; settings: pH 6.7
[4] = test system: MtbH37Rv pncA-knock out strain; test: microbe, parasite or virus in culture; assay type: cell-based, Mycobacterium tuberculosis; settings: for MIC: pH 5.2
Vero cells = test: Mammalian cell toxicity assay (CellTiter 96 Non-Radioactive Cell Proliferation Assay); assay type: cell-based; settings: read-out: Vero cell IC50
Mtb H37Rv-PH-GFP = assay type: cell-based, Mycobacterium tuberculosis; settings: acidic medium (pH 5.2), FIG. 1-3
Mtb = settings: standard culture conditions; cited from earlier work
[5] = Mycobacterium tuberculosis, H37RV, read-out: MIC 6.7 WT
[6] = Mycobacterium tuberculosis, H37RV, read-out: MIC 5.2 WT
[7] = Mycobacterium tuberculosis, read-out: MIC 6.7 KO
[8] = Mycobacterium tuberculosis, read-out: MIC 5.2 KO
[9] = Chlorocebus sabaeus, Vero, 72 h
[10] = Chlorocebus sabaeus, Table 1, Vero cells, 72 hours

| Structure (SMILES) | MIC (M tb H37Rv [1]; read-out: MIC6.7WT) | MIC (M tb H37Rv [2]; read-out: MIC5.2WT) | MIC ([3]; read-out: MIC6.7KO) | MIC ([4]; read-out: MIC5.2KO) | IC50 (Vero cells; Table 1, Vero cells, 72 hours) | MIC (M tb H37Rv [1]; [5]) | MIC (M tb H37Rv [2]; [6]) | MIC [3, 7] | MIC [4, 8] | also measured |
| --- | --- | --- | --- | --- | --- | --- | --- | --- | --- | --- |
| COc1cncc([B-](F)(F)F)n1.[K+] [Compound 2-5, [trifluoro-(6-methoxypyrazin-2-yl)-boranyl]potassium(1+)] | >200 µM | 50 µM | >200 µM | 25 µM | > 100 µM | – | – | – | – | – |
| Fc1cncc([B-](F)(F)F)c1.[K+] [Compound 4-2, [trifluoro-(5-fluoro-3-pyridyl)-boranyl] potassium(1+)] | 200 µM | 50 µM | 100 µM | 25 µM | > 100 µM | – | – | – | – | – |
| F[B-](F)(F)c1cncc(Cl)c1.[K+] [Compound 5-2, [(5-chloro-3-pyridyl)-trifluoro-boranyl] potassium(1+)] | 100 µM | 50 µM | 100 µM | 50 µM | > 100 µM | – | – | – | – | – |
| FB(F)c1cncc(N2CCCC2)n1 [Compound 7-5, potassium; difluoro-(6-pyrrolidin-1-ylpyrazin-2-yl)borane; fluoride] | – | – | – | – | – | > 200 µM | 100 µM | > 200 µM | 50 µM | IC50 (Vero cells; [9]): > 100 µM |
| N#Cc1cncc([B-](F)(F)F)c1 [Compound 11-2, potassium (5-cyanopyridin-3-yl)trifluoroborate] | – | – | – | – | – | > 200 µM | 100 µM | > 200 µM | 100 µM | IC50 (Vero cells; [9]): > 100 µM |
| F[B-](F)(F)c1cncc(C(F)(F)F)c1 [Compound 12-3, [trifluoro-[5-(trifluoromethyl)-3-pyridyl]-boranyl]potassium(1+)] | – | – | – | – | – | > 200 µM | 100 µM | > 200 µM | 100 µM | IC50 (Vero cells; [10]): > 100 µM |
| NNC(=O)c1ccncc1 [Isoniazid (INH), Isoniazid] | – | – | – | – | – | – | – | – | – | change in internal pH of Mtb (Mtb H37Rv-PH-GFP): does not have any effect on internal pH |
| NC(=O)c1cnccn1 [Pyrazinamide (PZA), Pyrazinamide, reference compound] | – | – | – | – | – | > 400 µM | 100 µM (≈ 12.3 µg/mL) | > 400 µM | > 400 µM | MIC (M tb H37Rv [1]; Mycobacterium tuberculosis, H37RV, read-out: MIC6.7WT): > 400 µM; MIC (M tb H37Rv [1]; Mycobacterium tuberculosis, H37RV, read-out: MIC at pH 6.7): > 400 µM; MIC (M tb H37Rv [2]; Mycobacterium tuberculosis, H37RV, read-out: MIC5.2WT): 100 µM (≈ 12.3 µg/mL); MIC (M tb H37Rv [2]; Mycobacterium tuberculosis, H37RV, read-out: MIC against Mtb at pH 5.2): 100 to 200 µM (≈ 12.3 to 24.6 µg/mL); MIC ([3]; Mycobacterium tuberculosis, read-out: MIC6.7KO): > 400 µM; MIC ([4]; Mycobacterium tuberculosis, read-out: MIC5.2KO): > 400 µM; activity against pncA KO strain of Mtb ([4]; result in words): not active against an Mtb strain whose pncA is knocked out; IC50 (Vero cells; [10]): > 100 µM; IC50 (Vero cells; Table 2, Vero cells, 72 hours): > 100 µM; change in internal pH of Mtb (Mtb H37Rv-PH-GFP): lowering internal pH of Mtb; minimum inhibitory concentration against Mtb (Mtb): > 200 µM |
